Reference: US20260200845A1, “NEUTROPHIL ELASTASE INHIBITOR AND USE THEREOF” (Shanghai Yidi Biotechnology Co., Ltd, priority 2023, published 2026)

How the values were obtained:
[1] = target: T1, rhELA2 (Homo sapiens, UniProt P08246); test: Neutrophil elastase (rhELA2) fluorescence inhibition assay; format: biochemical; settings: rhELA2 activated with DPPI; 30 min preincubation, 1 hr with substrate, fluorescence 360 nm/450 nm
T1 sequence (P08246 30-267): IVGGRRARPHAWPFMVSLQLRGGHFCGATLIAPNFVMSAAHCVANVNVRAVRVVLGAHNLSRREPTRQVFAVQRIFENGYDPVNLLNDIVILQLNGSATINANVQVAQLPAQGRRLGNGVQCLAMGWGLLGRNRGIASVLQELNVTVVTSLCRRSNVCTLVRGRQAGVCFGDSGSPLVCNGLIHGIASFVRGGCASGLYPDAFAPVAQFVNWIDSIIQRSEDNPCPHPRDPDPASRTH
Method: Compound preparation: All compounds were dissolved in DMSO at a concentration of 10 mM, and stored at −20° C.
A 1× assay buffer was prepared. […] 1 μL of the serially diluted compound and 65.67 μL of the assay buffer were added into a plate, to obtain 3× working solutions of the positive compound and the test compounds (the final concentration in DMSO was 1.5%). The plate was sealed with a sealing film and shaken on an oscillator for 15 min.
A 1× activation buffer was prepared. rhELA2 was diluted in the activation buffer containing DPPI and incubated at 37° C. for 2 hrs to activate rhELA2. 5 μl of the 3× diluted working solutions of the compound was added to a 384-well plate. rhELA2 was diluted with the 1× assay buffer, to obtain a 3× working solution of rhELA2. 5 μl of the 3× working solution of rhELA2 was added to each well of the 384-well plate. The plate was sealed and incubated for 30 min at room temperature in the dark.
A 3× substrate solution was prepared in the 1× assay buffer. 5 μl of the 3× working solution of the substrate was added into the 384-well plate. The 384-well plate was centrifuged at 1000 rpm for 1 min, and incubated for 1 hr at room temperature in the dark. The fluorescence value FLU at 360 nm/450 nm was read on a plate reader.
The inhibition rate % was calculated. Inhibition rate=(1−(FLU of the compound−FLU of the positive well)/(FLU of the reference well−FLU of the positive well)). FLU of the reference well is that of a well with only the enzyme and no the inhibitor, and FLU of the positive well is that of a well with the enzyme and 3000 nm Sivelestat-2. Then the IC50 value was calculated by the formula Y=Bottom+(Top−Bottom)/(1+10^((LogIC50−X)*HillSlope)) using Graphpad 8.0 software.

[2] = system: rat model of hydrochloric acid-induced acute lung injury; test: Animal Test 2: rat model of hydrochloric acid-induced acute lung injury; format: in vivo, rats
Method: Animal grouping: 4 groups, each group having 8 animals.
Establishment of rat model of hydrochloric acid-induced acute lung injury: 0.1 N HCL was sprayed into the trachea of rats at a dosage of 0.1 mL/rat.
Both groups were administered twice by tail vein injection, immediately after the model establishment and again 2.5 hrs after the model establishment.
The rats were sacrificed 5 h after the model establishment. Alveolar lavage was performed. The inflammatory cells, protein exudation, pulmonary hemorrhage and NE enzyme activity in the lavage fluid were measured.

[3] = system: mouse model of LPS-induced acute lung injury; test: Animal Test 1: mouse model of LPS-induced acute lung injury; format: in vivo, ICR mice; settings: for Content of inflammatory factor IL-1β (Mean ± SD) / Content of inflammatory factor TNF-α (Mean ± SD): left lung homogenate supernatant, 24 h after LPS, i.v. 25 mg/kg at 0.5 h, 4 h and 12 h, total 75 mg/kg
Method: Test animals: ICR mice, SPF grade, male, weight at the time of administration: 25-28 g.
Animal grouping: 4 groups, each group having 10 animals.
Establishment of mouse model of LPS-induced acute lung injury: The mice were anesthetized by intramuscular injection of Zoletil®50 (0.05 mL/mouse). Then the mice were fixed in a supine position, the cervical trachea was isolated, and lipopolysaccharide (LPS) (1 mg/mL, 35 μL/mouse) was sprayed by a high-pressure atomizing nozzle. The neck skin was sutured, and disinfected with iodophor.
The dosage at each administration was 25 mg/kg, and the total daily dosage was 75 mg/kg.
24 h after LPS was sprayed into the trachea of mice, the mice were sacrificed, and the trachea was isolated and intubated. The left lung lobe was ligated. The lung lavage was carried out with 0.5 mL normal saline (containing 1% serum and 2 U/mL heparin), and then the process was repeated two times. The lavage fluids of the 3 times were mixed and stood on ice for later use. The ligated left lung lobe was removed from the animal Nos. 1-8 in the blank control group, the model group, the test group and the positive control group respectively, weighed, added with 0.9% NaCl at a ratio of 1:6, homogenized at 4° C. and centrifuged at 10000 rpm for 10 min. The supernatant was collected and the contents of inflammatory factors IL-1B and TNF-α were determined.

[4] = alveolar lavage fluid 5 h after model establishment, tail vein injection twice, total 30 mg/kg
[5] = alveolar lavage fluid 5 h after model establishment, tail vein injection twice, total 120 mg/kg

For `C[C@@H](NC(=O)c1cc(C#N)ccc1NS(=O)(=O)c1ccc(OC(=O)C(C)(C)C)cc1)C(=O)O` [Compound 22], which IC50 [1] is on record?
Its IC50 is 2.2 nM.

For `[2H]C([2H])([2H])OC[C@@H](NC(=O)c1ccccc1NS(=O)(=O)c1ccc(OC(=O)C(C)(C)C)cc1)C(=O)O` [Compound 25, O-(methyl-d3)-N-(2-((4-(pivaloyloxy)phenyl)sulfonamido)benzoyl)-D-serine], which IC50 [1] is on record?
The IC50 was 2.54 nM.

How did the IC50 [1] turn out when `C[C@@H](NC(=O)c1cc(F)ccc1NS(=O)(=O)c1ccc(OC(=O)C(C)(C)C)cc1)C(=O)O` [Compound 21] was run?
Its IC50 is 2.26 nM.

`CC(C)(C)C(=O)Oc1ccc(S(=O)(=O)Nc2ccccc2C(=O)NCC(=O)O)cc1` [Sivelestat sodium, reference compound] was tested. Which “Protein content in alveolar lavage fluid (mg/mL)” value [2, 4] did it give?
The value was 0.35 ± 0.07 **^ mg/mL.

And the “Pulmonary hemorrhage (IOD, absorbance at 412 nm)” value [2, 4]?
The value was 0.25 ± 0.10.

What about the “White blood cell count (WBC, 1 × 10^6 cell/mL)” value [2, 4] of the same molecule?
The value was 0.42 ± 0.11 1 × 10^6 cell/mL.

And the “Content of inflammatory factor IL-1β (Mean ± SD)” value [3]?
Its value is 1048 ± 384 ^ pg/mL.

And the “Content of inflammatory factor TNF-α (Mean ± SD)” value [3]?
Its value is 552 ± 77 pg/mL.

For `CSCC(NC(=O)c1ccccc1NS(=O)(=O)c1ccc(OC(=O)C(C)(C)C)cc1)C(=O)O` (centres unmarked) [Compound 27], which IC50 [1] is on record?
Its IC50 is 130 nM.

`Cn1nccc1-c1ccc(NS(=O)(=O)c2ccc(OC(=O)C(C)(C)C)cc2)c(C(=O)NCC(=O)O)c1` [Compound 1, (5-(1-methyl-1H-pyrazol-5-yl)-2-((4-(pivaloyloxy)phenyl)sulfonamido)benzoyl)glycine] was tested. Which IC50 [1] did it give?
Its IC50 is 20.4 nM.

For `CC(C)(C)C(=O)Oc1ccc(S(=O)(=O)Nc2ccc(-n3ccnc3)cc2C(=O)NCC(=O)O)cc1` [Compound 3], which IC50 [1] is on record?
Its IC50 is 23.6 nM.

With `COC[C@@H](NC(=O)c1ccccc1NS(=O)(=O)c1ccc(OC(=O)C(C)(C)C)cc1)C(=O)O` [Compound 20] as the molecule, how does the “improvement of pulmonary hemorrhage, reduction of protein exudation and white blood cell count in alveolar lavage fluid, compared with Sivelestat sodium” value ([2]; Compound 20 120 mg/kg vs Sivelestat sodium 30 mg/kg) read?
The value was “more obviously compared with Sivelestat sodium”.

And the “Protein content in alveolar lavage fluid” value [2, 5]?
The value was 0.30 ± 0.05 mg/mL.

What about the “Pulmonary hemorrhage (IOD, absorbance at 412 nm)” value [2, 5] of the same molecule?
Its value is 0.20 ± 0.03.

And the “White blood cell count (WBC, 1 × 10^6 cell/mL)” value [2, 5]?
Its value is 0.28 ± 0.10 ** 1 × 10^6 cell/mL.

What about the “inhibitory effects on inflammatory factors IL-1B and TNF-α, compared with Sivelestat sodium” value ([3]; both 75 mg/kg total, i.v.) of the same molecule?
The value was “significantly better than those of Sivelestat sodium”.

And the “Content of inflammatory factor IL-1β (Mean ± SD)” value [3]?
Its value is 784 ± 159 pg/mL.

And the “Content of inflammatory factor TNF-α (Mean ± SD)” value [3]?
The value was 442 ± 118 pg/mL.

What about the IC50 [1] of the same molecule?
The IC50 was 2.47 nM.

For `COC[C@@H](NC(=O)c1cc(C#N)ccc1NS(=O)(=O)c1ccc(OC(=O)C(C)(C)C)cc1)C(=O)O` [Compound 24], which IC50 [1] is on record?
The IC50 was 1.5 nM.

Which IC50 [1] does the source give for `COc1ccc(NS(=O)(=O)c2ccc(OC(=O)C(C)(C)C)cc2)c(C(=O)NCC(=O)O)c1` [Compound 17] here?
Its IC50 is 15.3 nM.

For `CC(C)(C)C(=O)Oc1ccc(S(=O)(=O)Nc2ccc(-c3cnoc3)cc2C(=O)NCC(=O)O)cc1` [Compound 11], which IC50 [1] is on record?
The IC50 was 27 nM.

How did the IC50 [1] turn out when `CC(C)(C)C(=O)Oc1ccc(S(=O)(=O)Nc2ccccc2C(=O)NCCS(=O)(=O)O)cc1` [Compound 13, 2-(2-((4-(pivaloyloxy)phenyl)sulfonamido)benzamido) ethan-1-sulfonic acid] was run?
The IC50 was 4.22 nM.

Which IC50 [1] does the source give for `COC[C@H](NC(=O)c1ccccc1NS(=O)(=O)c1ccc(OC(=O)C(C)(C)C)cc1)C(=O)O` [Compound 26] here?
Its IC50 is 8.49 nM.

Which IC50 [1] does the source give for `CC(C)(C)C(=O)Oc1ccc(S(=O)(=O)N[C@@H]2CCC(F)(F)C[C@@H]2C(=O)NCC(=O)O)cc1` [Compound 6] here?
Its IC50 is 32.8 nM.

How did the IC50 [1] turn out when `CC(C)(C)C(=O)Oc1ccc(S(=O)(=O)Nc2ccccc2C(=O)N[C@H](CF)C(=O)O)cc1` [Compound 19] was run?
Its IC50 is 2.25 nM.

Which IC50 [1] does the source give for `Cn1cc(-c2ccc(NS(=O)(=O)c3ccc(OC(=O)C(C)(C)C)cc3)c(C(=O)NCC(=O)O)c2)cn1` [Compound 2] here?
Its IC50 is 30.5 nM.

How did the IC50 [1] turn out when `CC(C)(C)C(=O)Oc1ccc(S(=O)(=O)Nc2ccccc2C(=O)NCP(=O)(O)O)cc1` [Compound 12, ((2-((4-(pivaloyloxy)phenyl)sulfonamido)benzamido)methyl)phosphonic acid] was run?
The IC50 was 5.69 nM.

Which IC50 [1] does the source give for `C[C@@H](NC(=O)c1ccccc1NS(=O)(=O)c1ccc(OC(=O)C(C)(C)C)c(F)c1)C(=O)O` [Compound 23] here?
The IC50 was 3.69 nM.
